The record followed here is patent US4333947A, “Substituted imidazoles and their use” (Farmos-Yhtyma Oy, priority 1980, dated 1982).

Read-outs that look alike come from different tables or passages of the source.

Data set [1] concerns all the bacterial species. In words: antibacterial activity in vitro, agar diffusion method, all bacterial species. The conditions noted are these: 1000 μg/ml. The class given is cell-based. The procedure: (§1) The antimicrobial activity was determined in vitro according to a qualitative test for antibacterial and antifungal activity, using the agar diffusion method, against the following standard organisms: Staphylococcus aureus, Streptococcus pyogenes, Escherichia coli, Proteus mirabilis, Pseudomonas aeruginosus, Candida albicans and Aspergillus niger.
In general terms: Agar diffusion results depend on both activity and mobility in agar.

The subject of data set [2] is Sprague-Dawley rats. In words: blood pressure and pulse frequency in anesthetized rats of normal weight. The class given is in vivo. The conditions noted are these: for minimal effective dose: Rattus norvegicus, iv, anesthetized rats, i.v. How it is done:
The anti-hypertensive properties of the imidazole derivatives of the present invention have been determined according to the following procedure. Sprague-Dawley rats of normal weight were first anesthetized with urethane. After this, the femoral artery was connected by way of a polyethylene tube with a blood pressure transducer. The test substance was then injected into the femoral vein and the blood pressure and the pulse frequency were registered with a recorder.

The nature of data set [3]: acute toxicity, i.v., female mice of NMRI-Strain. Particulars: mouse, in vivo, iv. The procedure: Acute toxicity was determined by using female mice of NMRI-Strain with an age of about 7 months and weighing 30-40 g. The administration of the test compound was i.v.
The test system of data set [4] is Candida albicans. The experiment in a line: antifungal activity in vitro, agar diffusion method, Candida albicans. The class given is cell-based. The conditions noted are these: 1000 μg/ml. The procedure:
as §1

The subject of data set [5] is Aspergillus niger. The experiment in a line: antifungal activity in vitro, agar diffusion method, Aspergillus niger. Format: cell-based. Particulars: 1000 μg/ml. How it is done:
as §1

In data set [6] the test system is all standard bacterial and fungal species. In words: antimicrobial activity in vitro, agar diffusion method, all standard bacterial and fungal species. Format: cell-based. Particulars: 1000 μg/ml. How it is done:
as §1

Data set [7] deals with rats. In words: diuretic effect in rats, urine output 0-5 hours after i.p. injection. Format: in vivo. The procedure: The diuretic effect was studied in rats by collecting the urine output during 0-5 hours after i.p. injection of the compound. Before the test the rats were fasting overnight and got 10 ml water p.o. immediately before the injection.
In data set [8] the test system is fungi. In words: antifungal activity in vitro, agar diffusion method, fungi. Particulars: 1000 μg/ml. Format: cell-based, Candida albicans and Aspergillus niger. The procedure:
as §1

Data set [9] deals with arachidonic acid induced pulmonary thromboembolism. In words: antithrombotic activity in vivo, arachidonic acid induced pulmonary thromboembolism in mice. The conditions noted are these: 10 mg/kg p.o. How it is done:
The antithrombotic activity was investigated in vivo in mice as follows: The compounds to be tested were administered orally. After this arachidonic acid was given i.v. The inhibiting activity of the test compounds against arachidonic acid induced pulmonary thromboembolism was investigated.

Data set [10] deals with isoprenaline-induced chronotropic and inotropic action in the isolated atrium. In words: β-blocking activity in vitro, isoprenaline-induced chronotropic and inotropic action in isolated guinea-pig atrium. Particulars: Cavia porcellus; 1 μg/ml; read-out: inhibition of isoprenaline-induced chronotropic effect. Format: cell-based. The procedure:
The β-blocking activity was measured in vitro as follows: The atrium of a guinea-pig was isolated. The inhibiting activity of the compound against isoprenaline-induced chronotropic and inotropic action in the isolated atrium was measured.

Data set [11] relates to ADP-induced aggregation of thrombocytes. The experiment in a line: antithrombotic activity in vitro, ADP-induced aggregation of thrombocytes. Format: cell-based. Particulars: cow thrombocytes, 10 min incubation. The procedure:
(§2) In a further test the antithrombotic activity was investigated in vitro. The inhibiting activity of the compounds against ADP- and collagen-inducedaggregation of thrombocytes was measured. In the test thrombocytes from a cow was used. To 1.2 ml of plasma containing 250000 thrombocytes/mm^3 were added 50 μl of a solution of the compound to be tested. After 10 min incubation either ADP or collagen was added. The aggregation of the thrombocytes was turbidimetrically determined at λ=605 n m.

Data set [12] has as its system collagen-induced aggregation of thrombocytes. The experiment in a line: antithrombotic activity in vitro, collagen-induced aggregation of thrombocytes. Format: cell-based. The conditions noted are these: cow thrombocytes, 10 min incubation. The procedure: as §2
Data set [13] concerns E. coli. In words: antibacterial activity in vitro, agar diffusion method, E. coli. The class given is cell-based, Escherichia coli. Particulars: 100 μg/ml. The procedure:
as §1

The test system of data set [14] is all other bacterial and fungal species. The experiment in a line: antimicrobial activity in vitro, agar diffusion method, all other bacterial and fungal species (than E. coli and Staph. aureus). Format: cell-based. The conditions noted are these: 1000 μg/ml. How it is done: as §1
The subject of data set [15] is Staph. aureus. In words: antibacterial activity in vitro, agar diffusion method, Staph. aureus. Particulars: 100 μg/ml. The class given is cell-based, Staphylococcus aureus. The procedure: as §1
The mark [16] stands for this setting: read-out: dose i.v. causing a registrable lowering of the blood pressure.
The mark [17] stands for this setting: 1 mg/kg, 20 minutes after administration.
The mark [18] stands for this setting: 300 μg/kg i.v., 20 minutes after administration.

The LD50 is the dose at which mortality reaches 50%. Low values mean greater toxicity, high ones lower toxicity. In the case of `Cc1[nH]cnc1C=Cc1c(Cl)cccc1Cl` [4-[2-(2',6'-Dichlorophenyl)-ethenyl]-5-methyl-imidazole], the “activity against all the bacterial species” value in data set [1] is on record as “active”. The “lowering of the blood pressure” value in [2] (3 mg/kg i.v., 20 minutes after administration) was 30%. The minimal effective dose in data set [2] (read-out: dose i.v. at which a decrease of pulse frequency was noticed) came out at 1 mg/kg; in data set [2] (setting [16]), 0.3 mg/kg. In addition, in data set [3], the LD50 is 100 mg/kg. The “activity against Candida albicans” value in [4] is “active”. Moreover, the “activity against Aspergillus niger” value in data set [5] is “inactive”.
For the compound `Clc1cccc(Cl)c1C=Cc1c[nH]cn1` [4-[2-(2',6'-Dichlorophenyl)-ethenyl]-imidazole], the “decrease of pulse frequency” value in data set [2] (setting [17]) is listed as 30%. For the same compound, in [2] (setting [17]), the “lowering of the blood pressure” value was determined as 25%. The compound further displayed a 50% lethal dose (LD50) in [3] of 85 mg/kg. For the same compound, in data set [6], the “antimicrobial activity against all standard bacterial and fungal species” value is recorded as “active”. The “diuretic effect (5h)” value was 128% in [7] (0.005 mg/kg i.p.), 132% in [7] (0.05 mg/kg i.p.) and 135% in data set [7] (0.5 mg/kg i.p.).
Turning to `Cc1cccc(C)c1/C=C/c1c[nH]cn1` [4-[2-(2',6'-Dimethylphenyl)-ethenyl]-imidazole], in [2] (setting [18]), the “decrease of pulse frequency” value amounted to 24% and the “reduction of the blood pressure” value is 20%. Also, in data set [2] (setting [16]), the minimal effective dose stood at 0.01 mg/kg. Further, the LD50 in data set [3] was 50 mg/kg.
What is called inhibition is the change of the read-out against control, counted positive when it falls. Take `Cc1[nH]cnc1C=Cc1ccccc1Cl` [4-[2-(2'-Chlorophenyl)-ethenyl]-5-methyl-imidazole]: the “activity against all the bacterial species” value in [1] was “active”. In addition, the “activity against the fungi” value in data set [8] is listed as “not against the fungi”. For the same compound, in [3], the LD50 amounted to 85 mg/kg. For the same compound, in data set [9], the “mice protected from arachidonic acid-induced pulmonary thromboembolism” value is on record as 4 of 5. Moreover, the inhibition at 1 µg/mL in data set [10] came out at 67%.
As to `Cc1cccc(CC=Cc2c[nH]cn2)c1C` [4-[3-(2',3'-Dimethylphenyl)-1-propenyl]-imidazole], the “inhibition of ADP-induced thrombocyte aggregation” value in data set [11] is recorded as “clearly”. For the same compound, the “decrease of the blood pressure” value in data set [2] (0.3-1 mg/kg i.v., 20 minutes after administration) was determined as 20%. In data set [3], this compound showed a 50% lethal dose (LD50) of 75 mg/kg. The “inhibition of collagen-induced thrombocyte aggregation” value in data set [12] was “completely”.
For the compound `Cc1cccc(C)c1CC=Cc1c[nH]cn1` [4-[3-(2',6'-Dimethylphenyl)-1-propenyl]-imidazole], in [2] (1-3 mg/kg i.v., 20 minutes after administration), the “decrease of the blood pressure” value is given as 20%. The same compound gave a 50% lethal dose (LD50) in data set [3] of 75 mg/kg.
As to `Cc1cccc(C)c1CCCC=Cc1c[nH]cn1` [4-[5-(2',6'-Dimethylphenyl)-1-pentenyl]-imidazole], the “activity against E. coli” value in data set [13] was “active”. The compound further gave a median lethal dose (LD50) in data set [3] of 40 mg/kg. Also, the “activity against all other bacterial and fungal species” value in data set [14] is “active”. In addition, the “activity against Staph. aureus” value in [15] is reported as “active”. Besides, in [10], the inhibition at 1 µg/mL came to 57%.
